Counter-ions that a name gives are not always drawn. Like-named read-outs stand apart in the source and are kept apart here.
What was measured:
Herpes simplex virus = assay: In vitro plaque inhibition of Herpes simplex virus in BSC-1 or Hela cells (Table 3); format: cell-based; conditions: for inhibition at 3 µg/mL: 3 mcg/ml, read-out: PERCENT INHIBITION OF PLAQUES AT 3 mcg/ml; for inhibition at 6 µg/mL: 6 mcg/ml, read-out: PERCENT INHIBITION OF PLAQUES AT 6 mcg/ml; for inhibition at 25 µg/mL: read-out: PERCENT INHIBITION OF PLAQUES AT 25 mcg/ml; for inhibition at 50 µg/mL: read-out: PERCENT INHIBITION OF PLAQUES AT 50 mcg/ml; for inhibition at 12 µg/mL: 12 mcg/ml, read-out: PERCENT INHIBITION OF PLAQUES AT 12 mcg/ml; for inhibition at 100 µg/mL: 100 mcg/ml, read-out: PERCENT INHIBITION OF PLAQUES AT 100 mcg/ml
Description: The compounds of this invention also have anti-viral activity in vitro against Herpes simplex virus.
African green monkey kidney cells (BSC-1) or Hela cells (5-3) were grown in 25 cc. Falcon flasks at 37° C. in medium 199 with 5 percent inactivated fetal bovine serum (FBS), penicillin (150 units 1 ml.) and streptomycin (150 mcg./ml.). When confluent monolayers were formed, the supernatant growth medium was removed and 0.3 ml. of an appropriate dilution of Herpes simplex virus was added to each flask. After adsorption for one hour at room temperature, the virus infected cell sheet was overlaid with a medium comprising one part of 1 percent Ionagar No. 2 and one part double strength medium 199 with FCS, (fetal calf serum) penicillin, and streptomycin and also containing drug at concentrations of 100, 50, 25, 12, 6 and 3 micrograms per milliliter (mcg./ml.). The flask containing no drug served as a control. The stock solutions of 2,3-dihydroimidazo[1,2-c]pyrimidine compounds were made up in dimethylsulfoxide dilution at a concentration of 10^4 mcg./ml. The flasks were incubated for 72 hours at 37° C. […] A solution of 10 percent formalin and 2 percent sodium acetate was added to each flask to inactivate the virus and fix the cell sheet to the surface of the flask. The virus plaques, irrespective of size, were counted after staining the surrounding cell areas with crystal violet. The plaque count was compared to the control count at each drug concentration. The activity of the test compound was expressed as percentage plaque inhibition. Table 3, which follows, embodies the results of these determinations. In the table, column 1 gives the name of the compound, columns 2 through 6, the percent inhibition of herpes simplex plaques at various mcg./ml. levels of drug.

[1] = system: cutaneous Herpes simplex virus type 1; assay: Topical treatment of cutaneous Herpes simplex virus type 1 lesions on guinea pig back, final score (Table 1); format: in vivo, guinea pigs; conditions: vehicle D, 2.5 % conc., lesions scored 0 to 4+
Description: Three epilated areas on each guinea pig back were inoculated with approximately 1×10^5 plaque forming units of virus using a Sterneedle triggered 10 times for each area. Untreated guinea pigs so inoculated developed consistent rosette lesions in about 96 hours. All three areas on the back of each guinea pig were drug-treated and these compared with separate control animals which were treated with the particular vehicle employed for administering the drug. The positive control animals were treated with 0.5-1.0 percent phosphonoacetic acid (PAA) suspended in the same vehicle as the drug. Animals were inoculated on the morning of day 1 and treated on the afternoon of day 1. Two treatments per day were administered through day 5 for a total of 10 treatments. Hair was again epilated on day 5 and readings were begun then and taken daily through day 10. Lesions for each area were scored from 0 to 4+, which was a fully developed herpatic lesion with inflammation vesicles and pustules. An average score was then calculated for each drug for each day for the number of treated areas and control areas. Usually 3-6 guinea pigs were used per drug. After scoring, a final score or mean of means was calculated for drug-treated and for control areas. Table I which follows gives the results of determinations carried out as outlined above on compounds coming within the scope of this invention. In the table, column 1 gives the name of the drugs, column 2, the vehicle, column 3, the concentration; column 4, the number of animals used; and columns 5, the final score.

[2] = 72 h, 25 mcg/ml, 72 hours at 37° C.
[3] = 72 h, 50 mcg/ml, 72 hours at 37° C.

Compound	PERCENT INHIBITION OF PLAQUES AT 25 mcg/ml (Herpes simplex virus; 25 mcg/ml, 72 hours at 37° C., hydrochloride) [%]	PERCENT INHIBITION OF PLAQUES AT 50 mcg/ml (Herpes simplex virus; 50 mcg/ml, 72 hours at 37° C., hydrochloride) [%]	inhibition at 3 µg/mL (Herpes simplex virus; 72 h, 72 hours at 37° C.) [%]	inhibition at 6 µg/mL (Herpes simplex virus; 72 h, 72 hours at 37° C.) [%]	inhibition at 25 µg/mL (Herpes simplex virus; [2]) [%]	inhibition at 50 µg/mL (Herpes simplex virus; [3]) [%]	Final Score [1]	inhibition at 3 µg/mL (Herpes simplex virus; high virus input (HV)) [%]	inhibition at 3 µg/mL (Herpes simplex virus; low virus input (LV)) [%]	inhibition at 6 µg/mL (Herpes simplex virus; high virus input (HV)) [%]	inhibition at 6 µg/mL (Herpes simplex virus; low virus input (LV)) [%]	inhibition at 12 µg/mL (Herpes simplex virus; 72 h, 72 hours at 37° C.) [%]	inhibition at 100 µg/mL (Herpes simplex virus; 72 h, 72 hours at 37° C.) [%]
CC1=NC(Cl)=CC2=NCC(c3ccccc3)N12 (racemic) [dl-3-phenyl-5-methyl-7-chloro-2,3-dihydroimidazo[1,2-c]pyrimidine hydrochloride]	68	95	0	0	78	100	1.72						
CSC1=NC(Cl)=CC2=NCC(c3ccccc3)N21 (racemic) [dl-3-phenyl-5-methylthio-7-chloro-2,3-dihydroimidazo[1,2-c]pyrimidine hydrochloride]								23	57	84	100		
CCCCCC1=NC(Cl)=CC2=NCCN21 [5-n-Amyl-7-chloro-2,3-dihydroimidazo[1,2-c]pyrimidine hydrochloride]			0	0		100							
CC1=NC(N2CCCC2)=CC2=NCCN12 [5-methyl-7-pyrrolidino-2,3-dihydroimidazo[1,2-c]pyrimidine hydrochloride]			0	0	0	0						0	7
CC1=NC(N(C)Cc2ccccc2)=CC2=NCCN12 [N,5-dimethyl-7-benzylamino-2,3-dihydroimidazo[1,2-c]pyrimidine hydrochloride]				0	0	0						0	9
CNC1=CC2=NCCN2C(C)=N1 [5-methyl-7-methylamino-2,3-dihydroimidazo[1,2-c]pyrimidine dihydrochloride]				0	27	18						0	30
CC1=NC(Cl)=CC2=NCC(C)N12 (racemic) [dl-3,5-dimethyl-7-chloro-2,3-dihydroimidazo[1,2-c]pyrimidine hydrochloride]				0	12	74						0	

From patent US4153695A, “Substituted 2,3-dihydro imidazo[1,2-c]pyrimidines” (priority 1978, dated 1979)
